Assay results published in patent US20020137929A1, “1 - (3-heterocyclylphenyl) isothiourea, -isourea, -guanidine and -amidine herbicidal agents” (Intellectual Property Department, BASF Aktiengesellschaft, priority 1998, published 2002).

Assays:
[1] = system: IPOHE (Morningglory, Ivyleaf); assay: Preemergence herbicidal evaluation; type: in vivo, Ipomoea hederacea; settings: rated 4-5 weeks after treatment
In short: (§1)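 Seeds were mixed with potting soil and planted on about one inch of soil, then sprayed with test compound in aqueous acetone at about 0.0156 to 0.500 kg per hectare. Plants grew under standard greenhouse care and were visually rated 0-9 against untreated controls 4-5 weeks post-treatment.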

MOOVA (Monochoria) = assay: Preemergence weed control under flooded paddy conditions; type: in vivo, Monochoria vaginalis; settings: rated 3-4 weeks after treatment
In short: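 Greenhouse paddy assay. Acetone/water (50/50 v/v) solutions dosed into flood water, equivalent to about 0.0313 to 0.500 kg/ha active ingredient, over seeds planted 0.5 cm deep in silt loam. Score: 0-9 visual, based on stand, vigor, malformation, size and chlorosis, 3 to 4 weeks after treatment.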

ABUTH (Velvetleaf) = assay: Postemergence herbicidal evaluation; type: in vivo, Abutilon theophrasti; settings: postemergence
In short: (§2)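 Rate range approx. 0.0156–0.500 kg/ha. Foliar application at 40 psi to ~2-week seedlings; surfactant 0.5% TWEEN 20 in 50/50 acetone/water. Evaluation 4–5 wk post-treatment by 0–9 visual injury score, means of replicate tests.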

CYPIR (Rice Flatsedge) = assay: Preemergence weed control under flooded paddy conditions; type: in vivo, Cyperus iria; settings: rated 3-4 weeks after treatment
In short: (§3)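 Flooded-pot preemergence screen with silt loam and seeds in the upper 0.5 cm. Dose about 0.0313 to 0.500 kg/ha, delivered into flood water; visual 0-9 score after 3 to 4 weeks.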

[2] = system: TRZAWR (Wheat, Winter, cv Riband); assay: Preemergence herbicidal evaluation; type: in vivo, Triticum aestivum; settings: rated 4-5 weeks after treatment
In short: as §1

[3] = system: ECHORC (Watergrass (Calif.)); assay: Preemergence weed control under flooded paddy conditions; type: in vivo, Echinochloa oryzoides; settings: rated 3-4 weeks after treatment
In short: as §3

ECHCG (Barnyardgrass) = assay: Postemergence herbicidal evaluation; type: in vivo, Echinochloa crus-galli; settings: postemergence
In short: as §2

SETVI (Foxtail, Green) = assay: Postemergence herbicidal evaluation; type: in vivo, Setaria viridis; settings: postemergence
In short: as §2

GALAP (Galium) = assay: Postemergence herbicidal evaluation; type: in vivo, Galium aparine; settings: postemergence
In short: as §2

ORYSAT (Rice, Tebonnet) = assay: Postemergence herbicidal evaluation; type: in vivo, Oryza sativa, (L.) Tebonnet; settings: postemergence
In short: as §2

ZEAMX (Corn, Field) = assay: Preemergence herbicidal evaluation; type: in vivo, Zea mays; settings: rated 4-5 weeks after treatment
In short: as §1

[4] = rate 0.0156 kg/ha, rating scale 0-9
[5] = rate 0.0313 kg/ha, rating scale 0-9
[6] = rate 0.0625 kg/ha, rating scale 0-9
[7] = rate 0.1250 kg/ha, rating scale 0-9
[8] = rate 0.2500 kg/ha, rating scale 0-9

Compound: CCN1C(=O)CSC1=Nc1cc(-n2c(=O)cc(C(F)(F)F)n(C)c2=O)c(F)cc1Cl [Compound 159, 3-{4-Chloro-5-[(3-ethyl-4-oxo-2-thiazolidinyl-idene)amino]-2-fluorophenyl}-1-methyl-6-(trifluoromethyl)-2,4(1H,3H)-pyrimidinedione]
- Preemergence herbicidal rating IPOHE ([1]; 0.0156 kg/ha): 0.0
- Preemergence herbicidal rating IPOHE ([1]; 0.0313 kg/ha): 2.0
- Preemergence herbicidal rating IPOHE ([1]; 0.0625 kg/ha): 9.0
- Preemergence herbicidal rating IPOHE ([1]; 0.1250 kg/ha): 7.0
- Preemergence herbicidal rating IPOHE ([1]; 0.2500 kg/ha): 9.0
- herbicidal effect rating, MOOVA (MOOVA (Monochoria); 0.0313 kg/ha): 0.0
- herbicidal effect rating, MOOVA (MOOVA (Monochoria); 0.0625 kg/ha): 3.0
- herbicidal effect rating, MOOVA (MOOVA (Monochoria); 0.1250 kg/ha): 6.0
- herbicidal effect rating, MOOVA (MOOVA (Monochoria); 0.2500 kg/ha): 9.0
- Herbicidal rating ABUTH (ABUTH (Velvetleaf); rate 0.0156 kg/ha): 9.0
- Herbicidal rating ABUTH (ABUTH (Velvetleaf); rate 0.0313 kg/ha): 9.0
- Herbicidal rating ABUTH (ABUTH (Velvetleaf); rate 0.0625 kg/ha): 9.0
- herbicidal effect rating, CYPIR (CYPIR (Rice Flatsedge); 0.0313 kg/ha): 0.0
- herbicidal effect rating, CYPIR (CYPIR (Rice Flatsedge); 0.0625 kg/ha): 0.0
- herbicidal effect rating, CYPIR (CYPIR (Rice Flatsedge); 0.1250 kg/ha): 3.0
- herbicidal effect rating, CYPIR (CYPIR (Rice Flatsedge); 0.2500 kg/ha): 4.0
- Preemergence herbicidal rating TRZAWR ([2]; 0.0156 kg/ha): 0.0
- Preemergence herbicidal rating TRZAWR ([2]; 0.0313 kg/ha): 0.0
- Preemergence herbicidal rating TRZAWR ([2]; 0.0625 kg/ha): 0.0
- Preemergence herbicidal rating TRZAWR ([2]; 0.1250 kg/ha): 1.0
- Preemergence herbicidal rating TRZAWR ([2]; 0.2500 kg/ha): 3.0
- herbicidal effect rating, ECHORC ([3]; 0.0313 kg/ha): 2.0
- herbicidal effect rating, ECHORC ([3]; 0.0625 kg/ha): 4.0
- herbicidal effect rating, ECHORC ([3]; 0.1250 kg/ha): 5.0
- herbicidal effect rating, ECHORC ([3]; 0.2500 kg/ha): 7.0
- Herbicidal rating ECHCG (ECHCG (Barnyardgrass); rate 0.0156 kg/ha): 2.0
- Herbicidal rating ECHCG (ECHCG (Barnyardgrass); rate 0.0313 kg/ha): 3.0
- Herbicidal rating ECHCG (ECHCG (Barnyardgrass); rate 0.0625 kg/ha): 3.0
- Herbicidal rating SETVI (SETVI (Foxtail, Green); rate 0.0156 kg/ha): 1.0
- Herbicidal rating SETVI (SETVI (Foxtail, Green); rate 0.0313 kg/ha): 2.0
- Herbicidal rating SETVI (SETVI (Foxtail, Green); rate 0.0625 kg/ha): 7.0
- Herbicidal rating GALAP (GALAP (Galium); rate 0.0156 kg/ha): 0.0
- Herbicidal rating GALAP (GALAP (Galium); rate 0.0313 kg/ha): 1.0
- Herbicidal rating GALAP (GALAP (Galium); rate 0.0625 kg/ha): 4.0
- Herbicidal rating ORYSAT (ORYSAT (Rice, Tebonnet); rate 0.0156 kg/ha): 1.5
- Herbicidal rating ORYSAT (ORYSAT (Rice, Tebonnet); rate 0.0313 kg/ha): 2.0
- Herbicidal rating ORYSAT (ORYSAT (Rice, Tebonnet); rate 0.0625 kg/ha): 2.0
- Preemergence herbicidal rating ZEAMX (ZEAMX (Corn, Field); 0.0156 kg/ha): 0.0
- Preemergence herbicidal rating ZEAMX (ZEAMX (Corn, Field); 0.0313 kg/ha): 0.0
- Preemergence herbicidal rating ZEAMX (ZEAMX (Corn, Field); 0.0625 kg/ha): 1.0
- Preemergence herbicidal rating ZEAMX (ZEAMX (Corn, Field); 0.1250 kg/ha): 2.0
- Preemergence herbicidal rating ZEAMX (ZEAMX (Corn, Field); 0.2500 kg/ha): 7.0

Compound: Cn1c(C(F)(F)F)cc(=O)n(-c2cc(N=C3SCC(=O)N3Cc3ccc(C(F)(F)F)cc3)c(Cl)cc2F)c1=O [Compound 141, 3-{4-Chloro-2-fluoro-5-{{3-[p-(trifluoromethyl)benzyl]-4-oxo-2-thiazolidinylidene}-amino}phenyl}-1-methyl-6-(trifluoromethyl)-2,4 (1H, 3H)-pyrimidinedione]
- Preemergence herbicidal rating IPOHE [1, 4]: 0.0
- Preemergence herbicidal rating IPOHE [1, 5]: 0.0
- Preemergence herbicidal rating IPOHE [1, 6]: 0.0
- Preemergence herbicidal rating IPOHE [1, 7]: 0.0
- Preemergence herbicidal rating IPOHE [1, 8]: 3.0
- herbicidal effect rating, MOOVA (MOOVA (Monochoria); 0.0313 kg/ha): 7.0
- herbicidal effect rating, MOOVA (MOOVA (Monochoria); 0.0625 kg/ha): 8.0
- herbicidal effect rating, MOOVA (MOOVA (Monochoria); 0.1250 kg/ha): 8.0
- herbicidal effect rating, MOOVA (MOOVA (Monochoria); 0.2500 kg/ha): 9.0
- Herbicidal rating ABUTH (ABUTH (Velvetleaf); rate 0.0156 kg/ha): 7.0
- Herbicidal rating ABUTH (ABUTH (Velvetleaf); rate 0.0313 kg/ha): 7.0
- Herbicidal rating ABUTH (ABUTH (Velvetleaf); rate 0.0625 kg/ha): 8.0
- herbicidal effect rating, CYPIR (CYPIR (Rice Flatsedge); 0.0313 kg/ha): 4.0
- herbicidal effect rating, CYPIR (CYPIR (Rice Flatsedge); 0.0625 kg/ha): 5.0
- herbicidal effect rating, CYPIR (CYPIR (Rice Flatsedge); 0.1250 kg/ha): 6.0
- herbicidal effect rating, CYPIR (CYPIR (Rice Flatsedge); 0.2500 kg/ha): 6.0
- Preemergence herbicidal rating TRZAWR [2, 4]: 0.0
- Preemergence herbicidal rating TRZAWR [2, 5]: 0.0
- Preemergence herbicidal rating TRZAWR [2, 6]: 0.0
- Preemergence herbicidal rating TRZAWR [2, 7]: 0.0
- Preemergence herbicidal rating TRZAWR [2, 8]: 0.0
- herbicidal effect rating, ECHORC ([3]; 0.0313 kg/ha): 5.0
- herbicidal effect rating, ECHORC ([3]; 0.0625 kg/ha): 5.0
- herbicidal effect rating, ECHORC ([3]; 0.1250 kg/ha): 7.0
- herbicidal effect rating, ECHORC ([3]; 0.2500 kg/ha): 7.0
- Herbicidal rating ECHCG (ECHCG (Barnyardgrass); rate 0.0156 kg/ha): 0.0
- Herbicidal rating ECHCG (ECHCG (Barnyardgrass); rate 0.0313 kg/ha): 0.0
- Herbicidal rating ECHCG (ECHCG (Barnyardgrass); rate 0.0625 kg/ha): 0.0
- Herbicidal rating SETVI (SETVI (Foxtail, Green); rate 0.0156 kg/ha): 0.0
- Herbicidal rating SETVI (SETVI (Foxtail, Green); rate 0.0313 kg/ha): 0.0
- Herbicidal rating SETVI (SETVI (Foxtail, Green); rate 0.0625 kg/ha): 0.0
- Herbicidal rating GALAP (GALAP (Galium); rate 0.0156 kg/ha): 0.0
- Herbicidal rating GALAP (GALAP (Galium); rate 0.0313 kg/ha): 2.0
- Herbicidal rating GALAP (GALAP (Galium); rate 0.0625 kg/ha): 2.0
- Herbicidal rating ORYSAT (ORYSAT (Rice, Tebonnet); rate 0.0156 kg/ha): 0.5
- Herbicidal rating ORYSAT (ORYSAT (Rice, Tebonnet); rate 0.0313 kg/ha): 1.5
- Herbicidal rating ORYSAT (ORYSAT (Rice, Tebonnet); rate 0.0625 kg/ha): 2.0
- Preemergence herbicidal rating ZEAMX (ZEAMX (Corn, Field); [4]): 0.0
- Preemergence herbicidal rating ZEAMX (ZEAMX (Corn, Field); [5]): 0.0
- Preemergence herbicidal rating ZEAMX (ZEAMX (Corn, Field); [6]): 0.0
- Preemergence herbicidal rating ZEAMX (ZEAMX (Corn, Field); [7]): 0.0
- Preemergence herbicidal rating ZEAMX (ZEAMX (Corn, Field); [8]): 2.0

Compound: COc1cc(CN2C(=O)CSC2=Nc2cc(-n3c(=O)cc(C(F)(F)F)n(C)c3=O)c(F)cc2Cl)cc(OC)c1OC [Compound 140, 3-{4-Chloro-2-fluoro-5-{[3-(3,4,5-trimethoxybenzyl)-4-oxo-2-thiazolidinylidene]amino}phenyl}-1-methyl-6-(trifluoromethyl)-2,4(1H,3H)-pyrimidinedione]
- Preemergence herbicidal rating IPOHE [1, 6]: 0.0
- Preemergence herbicidal rating IPOHE [1, 7]: 3.0
- Preemergence herbicidal rating IPOHE [1, 8]: 3.0
- herbicidal effect rating, MOOVA (MOOVA (Monochoria); 0.0313 kg/ha): 4.0
- herbicidal effect rating, MOOVA (MOOVA (Monochoria); 0.0625 kg/ha): 7.0
- herbicidal effect rating, MOOVA (MOOVA (Monochoria); 0.1250 kg/ha): 9.0
- herbicidal effect rating, MOOVA (MOOVA (Monochoria); 0.2500 kg/ha): 9.0
- Herbicidal rating ABUTH (ABUTH (Velvetleaf); rate 0.0156 kg/ha): 4.0
- Herbicidal rating ABUTH (ABUTH (Velvetleaf); rate 0.0313 kg/ha): 4.0
- Herbicidal rating ABUTH (ABUTH (Velvetleaf); rate 0.0625 kg/ha): 9.0
- herbicidal effect rating, CYPIR (CYPIR (Rice Flatsedge); 0.0313 kg/ha): 4.0
- herbicidal effect rating, CYPIR (CYPIR (Rice Flatsedge); 0.0625 kg/ha): 7.0
- herbicidal effect rating, CYPIR (CYPIR (Rice Flatsedge); 0.1250 kg/ha): 9.0
- herbicidal effect rating, CYPIR (CYPIR (Rice Flatsedge); 0.2500 kg/ha): 7.0
- Preemergence herbicidal rating TRZAWR [2, 6]: 0.0
- Preemergence herbicidal rating TRZAWR [2, 7]: 0.0
- Preemergence herbicidal rating TRZAWR [2, 8]: 0.0
- herbicidal effect rating, ECHORC ([3]; 0.0313 kg/ha): 5.0
- herbicidal effect rating, ECHORC ([3]; 0.0625 kg/ha): 5.0
- herbicidal effect rating, ECHORC ([3]; 0.1250 kg/ha): 7.0
- herbicidal effect rating, ECHORC ([3]; 0.2500 kg/ha): 7.0
- Herbicidal rating ECHCG (ECHCG (Barnyardgrass); rate 0.0156 kg/ha): 0.0
- Herbicidal rating ECHCG (ECHCG (Barnyardgrass); rate 0.0313 kg/ha): 0.0
- Herbicidal rating ECHCG (ECHCG (Barnyardgrass); rate 0.0625 kg/ha): 0.0
- Herbicidal rating SETVI (SETVI (Foxtail, Green); rate 0.0156 kg/ha): 0.0
- Herbicidal rating SETVI (SETVI (Foxtail, Green); rate 0.0313 kg/ha): 0.0
- Herbicidal rating SETVI (SETVI (Foxtail, Green); rate 0.0625 kg/ha): 0.0
- Herbicidal rating GALAP (GALAP (Galium); rate 0.0156 kg/ha): 0.0
- Herbicidal rating GALAP (GALAP (Galium); rate 0.0313 kg/ha): 0.0
- Herbicidal rating GALAP (GALAP (Galium); rate 0.0625 kg/ha): 2.0
- Herbicidal rating ORYSAT (ORYSAT (Rice, Tebonnet); rate 0.0156 kg/ha): 0.5
- Herbicidal rating ORYSAT (ORYSAT (Rice, Tebonnet); rate 0.0313 kg/ha): 0.5
- Herbicidal rating ORYSAT (ORYSAT (Rice, Tebonnet); rate 0.0625 kg/ha): 1.5
- Preemergence herbicidal rating ZEAMX (ZEAMX (Corn, Field); [6]): 0.0
- Preemergence herbicidal rating ZEAMX (ZEAMX (Corn, Field); [7]): 0.0
- Preemergence herbicidal rating ZEAMX (ZEAMX (Corn, Field); [8]): 0.0
